Tests used:
Assay type in all cases: biochemical
[1] = biological target: T1, CYP1A1 (Homo sapiens, UniProt P04798); assay: P450-Glo CYP1A1 luminescence assay, recombinant enzyme in microsomes
T1 sequence (P04798 1-512): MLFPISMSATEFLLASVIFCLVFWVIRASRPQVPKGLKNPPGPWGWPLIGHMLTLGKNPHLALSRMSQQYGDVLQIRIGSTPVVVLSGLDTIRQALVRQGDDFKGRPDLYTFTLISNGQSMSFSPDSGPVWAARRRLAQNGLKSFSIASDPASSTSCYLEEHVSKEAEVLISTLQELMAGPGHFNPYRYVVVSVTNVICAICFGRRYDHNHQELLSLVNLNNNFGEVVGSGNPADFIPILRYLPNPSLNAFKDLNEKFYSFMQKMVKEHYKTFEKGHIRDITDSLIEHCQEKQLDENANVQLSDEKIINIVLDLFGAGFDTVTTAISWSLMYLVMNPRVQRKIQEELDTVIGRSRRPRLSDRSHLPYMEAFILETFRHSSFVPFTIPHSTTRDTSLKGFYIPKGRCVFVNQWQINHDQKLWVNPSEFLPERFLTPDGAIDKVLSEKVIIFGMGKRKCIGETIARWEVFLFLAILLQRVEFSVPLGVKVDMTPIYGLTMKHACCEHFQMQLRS

[2] = biological target: T2, CYP1A2 (Homo sapiens, UniProt P05177); assay: Vivid CYP450 Screening kit fluorescence assay
T2 sequence (P05177 2-516): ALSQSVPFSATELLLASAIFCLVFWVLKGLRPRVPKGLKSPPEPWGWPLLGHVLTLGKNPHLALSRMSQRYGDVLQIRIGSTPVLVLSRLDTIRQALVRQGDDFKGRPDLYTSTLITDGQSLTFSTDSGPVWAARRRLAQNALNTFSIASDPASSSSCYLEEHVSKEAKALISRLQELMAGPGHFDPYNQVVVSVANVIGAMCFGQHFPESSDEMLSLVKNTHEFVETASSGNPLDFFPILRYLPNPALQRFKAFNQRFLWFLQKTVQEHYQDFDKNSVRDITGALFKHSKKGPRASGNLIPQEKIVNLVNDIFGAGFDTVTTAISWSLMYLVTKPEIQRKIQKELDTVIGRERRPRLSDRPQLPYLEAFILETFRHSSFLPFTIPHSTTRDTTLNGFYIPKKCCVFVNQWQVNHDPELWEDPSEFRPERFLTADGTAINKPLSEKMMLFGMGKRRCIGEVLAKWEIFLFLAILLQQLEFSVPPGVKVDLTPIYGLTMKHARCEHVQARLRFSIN

[3] = biological target: CYP3A4 (Homo sapiens, UniProt P08684); assay: Vivid CYP450 Screening kit fluorescence assay
CYP3A4, sequence (P08684 2-503): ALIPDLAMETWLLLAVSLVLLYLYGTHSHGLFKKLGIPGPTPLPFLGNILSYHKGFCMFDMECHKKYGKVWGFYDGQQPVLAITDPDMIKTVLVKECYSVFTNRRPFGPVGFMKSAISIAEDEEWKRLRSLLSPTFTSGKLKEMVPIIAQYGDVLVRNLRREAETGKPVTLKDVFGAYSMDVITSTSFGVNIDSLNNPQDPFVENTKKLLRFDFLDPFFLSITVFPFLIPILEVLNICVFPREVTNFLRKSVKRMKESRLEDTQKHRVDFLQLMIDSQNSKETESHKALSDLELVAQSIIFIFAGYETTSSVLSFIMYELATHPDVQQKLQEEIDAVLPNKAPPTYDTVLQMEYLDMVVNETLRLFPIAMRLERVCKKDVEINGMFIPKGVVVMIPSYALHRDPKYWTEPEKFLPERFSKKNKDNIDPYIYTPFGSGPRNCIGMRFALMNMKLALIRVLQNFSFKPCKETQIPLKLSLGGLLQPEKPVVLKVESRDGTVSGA

[4] = biological target: T1, CYP1A1; assay: P450-Glo CYP1A1 luminescence assay, positive control at […]

| Compound | IC50 [1] | IC50 [2] | IC50 [3] | P450-Glo CYP1A1 luminescence assay, positive control at 1 μM [4] |
| --- | --- | --- | --- | --- |
| CC(=O)O[C@H]1CC(C)(C)C(=C=C/C(C)=C/C=C/C(C)=C/C=C/C=C(C)/C=C/C=C(\C)C(=O)C[C@@]23O[C@]2(C)C[C@@H](O)CC3(C)C)[C@](C)(O)C1 [Fx, fucoxanthin] | 12.5 µM | 49 µM | 11 µM |  |
| COc1ccc2[nH]c([S+]([O-])Cc3ncc(C)c(OC)c3C)nc2c1 (stereo not shown) [OMP, omeprazole] |  |  |  | significantly inhibited CYP1A1 activity, although the inhibition was weaker than that of omeprazole, a known CYP1A1 inhibitor |
